Results: patent US11446238B2, “Injectable dendrimer hydrogel nanoparticles” (Wayne State University, priority 2010, dated 2022)

System: Red blood cell (RBC)
Experiment: Red blood cell lysis (hemolysis)
Conditions: 1% Triton X-100, positive control

Substance: Triton X-100
- hemolysis: 100%
